Experimental data reported in US10227342B2 (ARIAD PHARMACEUTICALS, INC., priority 2014, dated 2019).

Key:
Assay type in all cases: cell-based
[1] = target: human EGFR E746-A750 deletion and T790M Mutation (DT) (Homo sapiens (Human), UniProt P00533, DEL746-750/T790M); assay: Ba/F3-EGFR-Del/T790M cell anti-proliferative assay (CellTiter 96 MTS, 72 h); conditions: Ba/F3-EGFR-Del/T790M cells; for IC50: read-out: EGFR exon 19 deletion and T790M mutation IC50
Description: An expression vector, pLVX-IRES puro (Clontech) coding for human EGFR E746-A750 deletion and T790M Mutation, was transfected into HEK293 cells by the Trans-Lentiviral ORF Packaging System (Thermo Scientific), to produce virus encoding EGFR exon 19 deletion and T790M mutations. […] Ba/F3 cells expressing EGFR E746-A750 deletion and T790M Mutation (named Ba/F3-EGFR-Del/T790M) can proliferate in the absence of IL-3. The anti-proliferative activity of compounds was determined as follows: BaF3-EGFR-Del/T790M cells seeded in 96 well plates (2500 cells/well) were treated with test compound (dissolved in DMSO) at a series of concentrations (4-fold dilution, top concentration: 10,000 nM). The plates were incubated for 72 h in a 37° C. incubator with 5% CO2, and the number of viable cells in each well were measured indirectly by CellTiter 96® Aqueous One Solution Cell Proliferation Assay (Promega; this assay is a colorimetric method for determining the number of viable cells through measurement of their metabolic activity by detection of enzymatic conversion of tetrazolium salts into blue formazan derivatives). Reagent (20 μL) was added into each well, and the plates were returned to the incubator for 2 h. The absorbance in each well was then measured at 490 nm using an Envision plate reader (Perkin Elmer).

[2] = target: human EGFR exon 20 insertion ASV (V769_D770insASV) (Homo sapiens (Human), UniProt P00533, INS769ASV); assay: Ba/F3-EGFR-Exon20-ASV cell anti-proliferative assay (CellTiter 96 MTS, 72 h); conditions: Ba/F3-EGFR-Exon20-ASV cells;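 further: Ba/F3 cells bearing the EGFR exon 20 ASV insertion, a line able to proliferate without IL-3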
Description: (§1) Ba/F3 cells expressing EGFR exon 20 insertions (named Ba/F3-EGFR-Exon20-NPG or Ba/F3-EGFR-Exon20-ASV) can proliferate in the absence of IL-3. The anti-proliferative activity of compounds were determined as follows: BaF3-EGFR-Exon20 cells (NPG or ASV) seeded in 96 well plates (2500 cells/well) were treated with test compound (dissolved in DMSO) at a series of concentrations (4-fold dilution, top concentration: 10,000 nM). The plates were incubated for 72 h in a 37° C. incubator with 5% CO2, and the number of viable cells in each well were measured indirectly by CellTiter 96® Aqueous One Solution Cell Proliferation Assay (Promega) This assay is a colorimetric method for determining the number of viable cells through measurement of their metabolic activity by detection of enzymatic conversion of tetrazolium salts into blue formazan derivatives. Reagent (20 μL) was added into each well, and the plates were returned to the incubator for 2 h. The absorbance in each well was then measured at 490 nm using an Envision plate reader (Perkin Elmer).

[3] = target: human EGFR exon 20 insertion NPG (H773_V774insNPG) (Homo sapiens, UniProt P00533, INS773NPG, cells depend on it); assay: Ba/F3-EGFR-Exon20-NPG cell anti-proliferative assay (CellTiter 96 MTS, 72 h); conditions: read-out: EGFR exon 20 NPG insertion IC50
Description: as §1

[4] = target: Her2 exon 20 YVMA insertion (A775_G776ins YVMA) (Homo sapiens (Human), UniProt P04626, INS775YVMA); assay: Ba/F3-Her2 Exon20 YVMA cell anti-proliferative assay (CellTiter 96 MTS, 72 h); conditions: Ba/F3-Her2 Exon20 YVMA cells
Excerpt: Ba/F3 cells expressing Her2 Exon20 YVMA insertions (named Ba/F3-Her2 Exon20 YVMA) can proliferate in the absence of IL-3.

Sequence of human EGFR exon 20 insertion ASV (V769_D770insASV) (P00533 other isoform, or with tags, fused parts or gaps ins ASV behind 769): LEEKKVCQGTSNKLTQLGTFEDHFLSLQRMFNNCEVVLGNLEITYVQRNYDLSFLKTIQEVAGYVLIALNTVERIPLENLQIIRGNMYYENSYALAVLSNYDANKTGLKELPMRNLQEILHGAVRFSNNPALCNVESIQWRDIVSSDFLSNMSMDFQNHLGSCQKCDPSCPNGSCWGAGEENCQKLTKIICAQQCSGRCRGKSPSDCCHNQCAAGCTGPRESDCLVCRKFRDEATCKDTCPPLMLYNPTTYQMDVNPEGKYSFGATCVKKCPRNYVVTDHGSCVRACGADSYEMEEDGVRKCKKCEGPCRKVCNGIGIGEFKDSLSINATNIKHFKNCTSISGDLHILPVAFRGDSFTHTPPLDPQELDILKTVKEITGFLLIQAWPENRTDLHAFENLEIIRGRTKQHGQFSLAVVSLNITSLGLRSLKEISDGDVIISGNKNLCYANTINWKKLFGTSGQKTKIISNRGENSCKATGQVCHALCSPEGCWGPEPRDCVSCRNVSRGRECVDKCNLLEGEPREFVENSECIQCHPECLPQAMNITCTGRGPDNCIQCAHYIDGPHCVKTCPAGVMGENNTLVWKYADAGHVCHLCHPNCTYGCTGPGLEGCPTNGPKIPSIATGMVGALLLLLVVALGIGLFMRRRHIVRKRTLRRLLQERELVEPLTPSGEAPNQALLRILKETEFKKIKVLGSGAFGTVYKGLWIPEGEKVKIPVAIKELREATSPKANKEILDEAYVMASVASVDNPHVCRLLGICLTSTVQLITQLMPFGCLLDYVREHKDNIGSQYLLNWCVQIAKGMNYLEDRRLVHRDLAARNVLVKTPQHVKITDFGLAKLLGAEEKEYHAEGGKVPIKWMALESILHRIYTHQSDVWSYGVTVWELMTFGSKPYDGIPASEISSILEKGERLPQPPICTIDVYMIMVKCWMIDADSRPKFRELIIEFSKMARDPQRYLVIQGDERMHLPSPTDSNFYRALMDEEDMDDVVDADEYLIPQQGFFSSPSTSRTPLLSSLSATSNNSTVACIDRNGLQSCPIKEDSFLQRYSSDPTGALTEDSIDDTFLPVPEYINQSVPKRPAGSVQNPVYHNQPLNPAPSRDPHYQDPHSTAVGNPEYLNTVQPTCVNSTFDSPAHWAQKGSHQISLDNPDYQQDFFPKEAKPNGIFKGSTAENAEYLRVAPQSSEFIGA
Sequence of human EGFR exon 20 insertion NPG (H773_V774insNPG) (P00533 with tags, fused parts or gaps INS773NPG limits assumed): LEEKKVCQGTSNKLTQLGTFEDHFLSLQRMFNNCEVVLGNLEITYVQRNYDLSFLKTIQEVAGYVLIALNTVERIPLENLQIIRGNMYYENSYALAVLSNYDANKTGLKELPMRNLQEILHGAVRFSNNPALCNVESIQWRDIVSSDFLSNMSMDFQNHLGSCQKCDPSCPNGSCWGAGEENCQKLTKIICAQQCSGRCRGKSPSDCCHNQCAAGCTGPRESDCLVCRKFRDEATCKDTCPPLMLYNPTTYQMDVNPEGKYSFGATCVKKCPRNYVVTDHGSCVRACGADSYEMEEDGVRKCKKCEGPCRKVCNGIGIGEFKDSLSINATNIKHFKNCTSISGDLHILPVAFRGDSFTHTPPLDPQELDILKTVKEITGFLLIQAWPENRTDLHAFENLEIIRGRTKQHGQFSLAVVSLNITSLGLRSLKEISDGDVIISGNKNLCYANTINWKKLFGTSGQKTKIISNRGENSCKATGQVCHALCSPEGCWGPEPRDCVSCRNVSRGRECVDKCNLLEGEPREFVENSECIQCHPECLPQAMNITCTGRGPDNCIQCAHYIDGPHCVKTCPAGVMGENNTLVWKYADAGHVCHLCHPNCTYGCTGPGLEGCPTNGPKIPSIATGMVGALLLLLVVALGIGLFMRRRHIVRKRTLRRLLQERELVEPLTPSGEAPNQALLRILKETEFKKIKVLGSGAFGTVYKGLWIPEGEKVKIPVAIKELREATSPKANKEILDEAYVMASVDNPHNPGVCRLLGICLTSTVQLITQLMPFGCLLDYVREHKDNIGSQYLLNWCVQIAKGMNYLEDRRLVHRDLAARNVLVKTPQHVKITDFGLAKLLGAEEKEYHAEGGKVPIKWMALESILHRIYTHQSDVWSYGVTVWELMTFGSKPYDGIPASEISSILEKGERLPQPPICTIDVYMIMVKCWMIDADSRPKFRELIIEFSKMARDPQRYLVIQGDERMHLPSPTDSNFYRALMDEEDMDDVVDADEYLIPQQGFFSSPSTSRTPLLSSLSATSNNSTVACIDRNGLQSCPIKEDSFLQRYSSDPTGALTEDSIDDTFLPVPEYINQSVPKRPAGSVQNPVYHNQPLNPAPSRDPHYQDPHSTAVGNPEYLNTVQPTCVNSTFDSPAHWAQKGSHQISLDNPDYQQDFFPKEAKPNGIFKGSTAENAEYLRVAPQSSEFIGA
Sequence of human EGFR E746-A750 deletion and T790M Mutation (DT) (P00533 other isoform, or with tags, fused parts or gaps T790M/del E746-A750): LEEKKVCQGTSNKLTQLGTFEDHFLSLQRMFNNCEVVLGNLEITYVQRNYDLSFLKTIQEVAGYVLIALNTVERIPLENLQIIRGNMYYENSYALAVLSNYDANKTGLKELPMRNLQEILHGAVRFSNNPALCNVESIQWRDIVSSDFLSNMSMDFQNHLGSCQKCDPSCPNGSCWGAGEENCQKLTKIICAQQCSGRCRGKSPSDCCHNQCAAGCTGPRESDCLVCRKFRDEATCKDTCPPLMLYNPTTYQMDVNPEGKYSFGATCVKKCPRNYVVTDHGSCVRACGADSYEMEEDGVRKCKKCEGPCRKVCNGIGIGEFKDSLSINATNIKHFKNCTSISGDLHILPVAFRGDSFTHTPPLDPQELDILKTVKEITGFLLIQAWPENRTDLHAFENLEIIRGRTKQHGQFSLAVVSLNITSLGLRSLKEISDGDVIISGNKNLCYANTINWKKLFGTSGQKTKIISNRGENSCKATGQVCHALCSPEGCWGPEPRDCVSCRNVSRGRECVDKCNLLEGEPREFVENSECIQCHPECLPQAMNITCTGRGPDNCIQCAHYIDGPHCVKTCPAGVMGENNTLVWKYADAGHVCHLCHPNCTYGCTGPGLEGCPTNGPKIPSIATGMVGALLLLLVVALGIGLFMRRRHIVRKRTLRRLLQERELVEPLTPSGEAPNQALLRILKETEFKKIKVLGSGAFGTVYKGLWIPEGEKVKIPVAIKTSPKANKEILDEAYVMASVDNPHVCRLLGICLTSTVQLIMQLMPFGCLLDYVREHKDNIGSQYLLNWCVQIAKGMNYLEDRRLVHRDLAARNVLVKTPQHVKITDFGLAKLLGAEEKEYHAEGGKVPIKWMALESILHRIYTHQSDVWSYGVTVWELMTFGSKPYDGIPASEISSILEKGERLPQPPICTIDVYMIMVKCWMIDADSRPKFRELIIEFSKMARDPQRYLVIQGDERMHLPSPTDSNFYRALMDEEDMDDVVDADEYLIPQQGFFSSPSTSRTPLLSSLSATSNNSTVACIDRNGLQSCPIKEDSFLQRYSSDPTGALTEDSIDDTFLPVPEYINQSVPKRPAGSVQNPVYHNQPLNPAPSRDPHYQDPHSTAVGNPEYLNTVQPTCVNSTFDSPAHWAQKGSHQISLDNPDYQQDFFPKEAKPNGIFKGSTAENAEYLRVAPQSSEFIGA
Sequence of Her2 exon 20 YVMA insertion (A775_G776ins YVMA) (P04626 other isoform, or with tags, fused parts or gaps ins YVMA behind 775): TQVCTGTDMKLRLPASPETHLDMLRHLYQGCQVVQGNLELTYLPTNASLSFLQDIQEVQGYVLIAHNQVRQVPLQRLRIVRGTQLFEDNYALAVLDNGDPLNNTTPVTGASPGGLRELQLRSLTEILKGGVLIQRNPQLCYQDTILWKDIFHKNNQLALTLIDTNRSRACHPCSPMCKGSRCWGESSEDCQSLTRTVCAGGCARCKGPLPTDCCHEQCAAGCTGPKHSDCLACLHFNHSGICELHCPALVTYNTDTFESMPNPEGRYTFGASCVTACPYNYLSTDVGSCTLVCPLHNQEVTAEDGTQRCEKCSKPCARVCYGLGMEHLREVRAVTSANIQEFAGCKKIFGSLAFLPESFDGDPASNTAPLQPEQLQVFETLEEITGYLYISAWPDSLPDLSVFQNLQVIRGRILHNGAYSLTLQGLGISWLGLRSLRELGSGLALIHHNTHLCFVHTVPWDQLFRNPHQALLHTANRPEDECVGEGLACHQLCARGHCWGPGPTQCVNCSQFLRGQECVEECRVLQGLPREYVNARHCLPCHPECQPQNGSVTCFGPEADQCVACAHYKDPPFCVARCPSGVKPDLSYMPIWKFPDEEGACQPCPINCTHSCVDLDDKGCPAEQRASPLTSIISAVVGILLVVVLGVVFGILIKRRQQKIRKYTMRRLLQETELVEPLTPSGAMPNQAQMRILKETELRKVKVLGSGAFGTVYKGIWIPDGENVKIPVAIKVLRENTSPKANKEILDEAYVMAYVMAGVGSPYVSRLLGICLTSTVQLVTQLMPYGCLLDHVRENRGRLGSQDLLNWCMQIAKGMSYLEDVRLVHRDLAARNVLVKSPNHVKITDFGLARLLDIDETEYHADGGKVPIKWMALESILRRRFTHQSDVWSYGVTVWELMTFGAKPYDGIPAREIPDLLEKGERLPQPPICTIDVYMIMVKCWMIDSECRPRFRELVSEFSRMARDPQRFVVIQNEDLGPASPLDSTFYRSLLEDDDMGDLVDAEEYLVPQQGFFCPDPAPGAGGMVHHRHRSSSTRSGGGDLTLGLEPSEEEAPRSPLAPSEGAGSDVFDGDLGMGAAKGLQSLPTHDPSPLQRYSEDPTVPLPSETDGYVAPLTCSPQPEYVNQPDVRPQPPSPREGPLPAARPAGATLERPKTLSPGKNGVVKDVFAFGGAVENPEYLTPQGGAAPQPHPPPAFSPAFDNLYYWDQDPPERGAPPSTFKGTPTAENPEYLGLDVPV

| SMILES | EGFR exon 19 deletion and T790M mutation IC50 [1] | IC50 [2] | IC50 [3] | IC50 [4] | IC50 [1] |
| --- | --- | --- | --- | --- | --- |
| C=CC(=O)Nc1cc(Nc2ncnc(-c3c(C4CCOCC4)n(C)c4ccccc34)n2)c(OC)cc1N(C)CCN(C)C [Example 4, N-(2-((2-(dimethylamino)ethyl)(methyl)amino)-4-methoxy-5-((4-(1-methyl-2-(tetrahydro-2H-pyran-4-yl)-1H-indol-3-yl)-1,3,5-triazin-2-yl)amino)phenyl)acrylamide] | B (Group B compounds have an IC50 value for the indicated mutant between about 100 to about 500 nM) | 100 to 500 nM | < 100 nM | 100 to 500 nM |  |
| C=CC(=O)Nc1cc(Nc2ncc(NC(=O)CC)c(-c3nn(C)c4ccccc34)n2)c(OC)cc1N(C)CCN(C)C [Example 60, N-(2-((2-(dimethylamino)ethyl)(methyl)amino)-4-methoxy-5-((4-(1-methyl-1H-indazol-3-yl)-5-propionamidopyrimidin-2-yl)amino)phenyl)acrylamide] |  | < 100 nM | < 100 nM | > 1000 nM | < 100 nM |
| C=CC(=O)Nc1cc(Nc2ncc(C(=O)OC3CCC3)c(-c3cn(C)c4ccccc34)n2)c(OC)cc1N(C)CCN(C)C [Example 14, cyclobutyl 2-((5-acrylamido-4-((2-(dimethylamino)ethyl)(methyl)amino)-2-methoxyphenyl)amino)-4-(1-methyl-1H-indol-3-yl)pyrimidine-5-carboxylate] |  | < 100 nM | < 100 nM | < 100 nM | < 100 nM |
| C=CC(=O)Nc1cc(Nc2ncc(C(=O)OC(C)C)c(-c3cnn4ccccc34)n2)c(OC)cc1N(C)CCN(C)C [Example 32, isopropyl 2-((5-acrylamido-4-((2-(dimethylamino)ethyl)(methyl)amino)-2-methoxyphenyl)amino)-4-(pyrazolo[1,5-a]pyridin-3-yl)pyrimidine-5-carboxylate] |  | < 100 nM | < 100 nM | < 100 nM | < 100 nM |
| C=CC(=O)Nc1cc(Nc2ncc(C(=O)OCC3CC3)c(-c3cn(C)c4ccccc34)n2)c(OC)cc1N(C)CCN(C)C [Example 13, cyclopropylmethyl 2-((5-acrylamido-4-((2-(dimethylamino)ethyl)(methyl)amino)-2-methoxyphenyl)amino)-4-(1-methyl-1H-indol-3-yl)pyrimidine-5-carboxylate] |  | < 100 nM | < 100 nM | < 100 nM | < 100 nM |
| C=CC(=O)Nc1cc(Nc2ncnc(-c3c(C4=CCOCC4)n(C)c4ccccc34)n2)c(OC)cc1N(C)CCN(C)C [Example 2, N-(5-((4-(2-(3,6-dihydro-2H-pyran-4-yl)-1-methyl-1H-indol-3-yl)-1,3,5-triazin-2-yl)amino)-2-((2-(dimethylamino)ethyl)(methyl)amino)-4-methoxyphenyl)acrylamide] |  | < 100 nM | < 100 nM | 100 to 500 nM | < 100 nM |
| C=CC(=O)Nc1cc(Nc2ncc(C(=O)OC(C)C)c(-n3cc(C)c4ccccc43)n2)c(OC)cc1N(C)CCN(C)C [Example 97, isopropyl 2-((5-acrylamido-4-((2-(dimethylamino)ethyl)(methyl)amino)-2-methoxyphenyl)amino)-4-(3-methyl-1H-indol-1-yl)pyrimidine-5-carboxylate] |  | 100 to 500 nM | < 100 nM | 100 to 500 nM | < 100 nM |
| C=CC(=O)Nc1ccc(OC)c(Nc2ncc(C#N)c(-c3cn(C)c4cc(OCC5CCCN5C)ccc34)n2)c1 (stereo not shown) [Example 21, N-(3-((5-cyano-4-(1-methyl-6-((1-methylpyrrolidin-2-yl)methoxy)-1H-indol-3-yl)pyrimidin-2-yl)amino)-4-methoxyphenyl)acrylamide] |  | 500 to 1000 nM | < 100 nM | 500 to 1000 nM | < 100 nM |
| C=CC(=O)Nc1cc(Nc2ncnc(-c3c(-c4ccccc4)n(C)c4ccccc34)n2)c(OC)cc1N(C)CCN(C)C [Example 3, N-(2-((2-(dimethylamino)ethyl)(methyl)amino)-4-methoxy-5-((4-(1-methyl-2-phenyl-1H-indol-3-yl)-1,3,5-triazin-2-yl)amino)phenyl)acrylamide] |  | < 100 nM | < 100 nM | 100 to 500 nM | < 100 nM |
| C=CC(=O)Nc1cc(Nc2ncc(NC(=O)C(C)(C)C)c(-c3cn(C)c4ccccc34)n2)c(OC)cc1OC [Example 42, N-(2,4-dimethoxy-5-((4-(1-methyl-1H-indol-3-yl)-5-pivalamidopyrimidin-2-yl)amino)phenyl)acrylamide] |  | > 1000 nM | > 1000 nM | > 1000 nM | > 1000 nM |
| C=CC(=O)Nc1cc(Nc2ncc(NC(=O)C(C)C)c(-c3cn(C)c4ccccc34)n2)c(OC)cc1N(C)CCN(C)C [Example 39, N-(2-((2-(dimethylamino)ethyl)-(methyl)amino)-5-((5-isobutyramido-4-(1-methyl-1H-indol-3-yl)pyrimidin-2-yl)amino)-4-methoxyphenyl)-acrylamide] |  | 100 to 500 nM | < 100 nM | > 1000 nM | > 1000 nM |
| C=CC(=O)Nc1ccc(OC)c(Nc2ncc(Cl)c(-c3c[nH]c4cc(OCCN5CCCC5)ccc34)n2)c1 [Example 22, N-(3-((5-chloro-4-(6-(2-(pyrrolidin-1-yl)ethoxy)-1H-indol-3-yl)pyrimidin-2-yl)amino)-4-methoxyphenyl)acrylamide] |  | 100 to 500 nM | < 100 nM | 100 to 500 nM | < 100 nM |
| C=CC(=O)Nc1cc(Nc2ncc(C(=O)OCC)c(-c3cn(C)c4ccccc34)n2)c(OC)cc1N(C)C[C@H]1CCCN1C [Example 65, ethyl (R)-2-((5-acrylamido-2-methoxy-4-(methyl((1-methylpyrrolidin-2-yl)methyl)amino)phenyl)amino)-4-(1-methyl-1H-indol-3-yl)pyrimidine-5-carboxylate] |  | < 100 nM | < 100 nM | < 100 nM | < 100 nM |
| C=CC(=O)Nc1cc(Nc2ncc(C(=O)OC(C)C)c(-c3c[nH]c4ccccc34)n2)c(OC)cc1N(C)C[C@H]1CCCN1C [Example 64, isopropyl (R)-2-((5-acrylamido-2-methoxy-4-(methyl((1-methylpyrrolidin-2-yl)methyl)amino)phenyl)amino)-4-(1H-indol-3-yl)pyrimidine-5-carboxylate] |  | < 100 nM | < 100 nM | < 100 nM | < 100 nM |
| C=CC(=O)Nc1cc(Nc2ncc(C(=O)OCC(C)C)c(-c3cn(C)c4ccccc34)n2)c(OC)cc1N(C)CCN(C)C [Example 28, isobutyl 2-((5-acrylamido-4-((2-(dimethylamino)ethyl)(methyl)amino)-2-methoxyphenyl)amino)-4-(1-methyl-1H-indol-3-yl)pyrimidine-5-carboxylate] |  | < 100 nM | < 100 nM | 100 to 500 nM | < 100 nM |
| C=CC(=O)Nc1cc(Nc2ncc(C(=O)OC(C)C)c(-c3cnc4ccccn34)n2)c(OC)cc1N(C)CCN(C)C [Example 94, isopropyl 2-((5-acrylamido-4-((2-(dimethylamino)ethyl)(methyl)amino)-2-methoxyphenyl)amino)-4-(imidazo[1,2-a]pyridin-3-yl)pyrimidine-5-carboxylate] |  | < 100 nM | < 100 nM | < 100 nM | < 100 nM |
